Assay results from the supplement of paper PMC13380429.

Assays:
Details in all cases: 72 h
U2OS [1] = experiment: cell viability relative to DMSO; higher = less toxic
HepG2 [2] = experiment: as above
Vero E6 [3] = experiment: as above
Caco-2 [4] = experiment: as above
Calu-3 [5] = experiment: as above
U2OS [6] = experiment: relative viability EC50 (midpoint between 100% and the lowest measured viability); higher = less toxic
HepG2 [7] = experiment: as above
Vero E6 [8] = experiment: as above
Caco-2 [9] = experiment: as above
Calu-3 [10] = experiment: as above
U2OS [11] = experiment: drug sensitivity score (DSS) for viability; higher = more toxic; extreme values may be limits of the assay
HepG2 [12] = experiment: as above
Vero E6 [13] = experiment: as above
Caco-2 [14] = experiment: as above
Calu-3 [15] = experiment: as above

SMILES | cell viability (U2OS [1]; 1 nM) [%] | cell viability (U2OS [1]; 10 nM) [%] | cell viability (U2OS [1]; 100 nM) [%] | cell viability (U2OS [1]; 1000 nM) [%] | cell viability (U2OS [1]; 10000 nM) [%] | cell viability (HepG2 [2]; 1 nM) [%] | cell viability (HepG2 [2]; 10 nM) [%] | cell viability (HepG2 [2]; 100 nM) [%] | cell viability (HepG2 [2]; 1000 nM) [%] | cell viability (HepG2 [2]; 10000 nM) [%] | cell viability (Vero E6 [3]; 1 nM) [%] | cell viability (Vero E6 [3]; 10 nM) [%] | cell viability (Vero E6 [3]; 100 nM) [%] | cell viability (Vero E6 [3]; 1000 nM) [%] | cell viability (Vero E6 [3]; 10000 nM) [%] | cell viability (Caco-2 [4]; 1 nM) [%] | cell viability (Caco-2 [4]; 10 nM) [%] | cell viability (Caco-2 [4]; 100 nM) [%] | cell viability (Caco-2 [4]; 1000 nM) [%] | cell viability (Caco-2 [4]; 10000 nM) [%] | cell viability (Calu-3 [5]; 1 nM) [%] | cell viability (Calu-3 [5]; 10 nM) [%] | cell viability (Calu-3 [5]; 100 nM) [%] | cell viability (Calu-3 [5]; 1000 nM) [%] | cell viability (Calu-3 [5]; 10000 nM) [%] | relative viability EC50 (U2OS [6]) [µM] | relative viability EC50 (HepG2 [7]) [µM] | relative viability EC50 (Vero E6 [8]) [µM] | relative viability EC50 (Caco-2 [9]) [µM] | relative viability EC50 (Calu-3 [10]) [µM] | drug sensitivity score (U2OS [11]) | drug sensitivity score (HepG2 [12]) | drug sensitivity score (Vero E6 [13]) | drug sensitivity score (Caco-2 [14]) | drug sensitivity score (Calu-3 [15])
C[N+]1([O-])[C@@H]2C[C@@H](OC(=O)[C@H](CO)c3ccccc3)C[C@H]1[C@@H]1O[C@@H]12 (some centres not stated) [scopolamine-N-oxide] | 93.9 | 96.5 | 93.9 | 98.5 | 104 | 105 | 93.1 | 107 | 107 | 108 | 93.1 | 83.9 | 104 | 97.4 | 107 | 88.4 | 97.6 | 85.9 | 96.6 | 102 | 99.7 | 95.4 | 100 | 102 | 94.5 | > 10 | > 10 | > 10 | > 10 | > 10 | 0 | 0 | 0 | 0 | 0
CN1CCN(c2nc3ccccc3nc2Cl)CC1 | 95.9 | 97.6 | 99 | 103 | 96.3 | 97.2 | 92.9 | 104 | 93 | 95.9 | 101 | 102 | 103 | 94.2 | 97.5 | 89.4 | 90.5 | 98.3 | 88.4 | 91.6 | 93.4 | 105 | 106 | 92.4 | 98.3 | > 10 | > 10 | > 10 | > 10 | > 10 | 0 | 0 | 0 | 0 | 0
CC(=O)N(C)c1cc(-c2ccnc3c(C(=O)c4cccs4)cnn23)ccc1F [lorediplon] | 99.2 | 97 | 97 | 96.7 | 96.6 | 94 | 107 | 95.6 | 96.1 | 80 | 97.9 | 98.9 | 93.9 | 96.3 | 91 | 100 | 93.9 | 87.5 | 95.1 | 88.1 | 90.8 | 106 | 98.6 | 104 | 99.6 | > 10 | > 10 | > 10 | > 10 | > 10 | 0 | 1.1 | 0 | 0.3 | 0
Cc1c(Cc2ccc3ccccc3n2)c2cc(F)ccc2n1CC(=O)O | 94.7 | 101 | 95.4 | 97.9 | 108 | 119 | 96.9 | 109 | 108 | 105 | 102 | 96.7 | 99.5 | 97.8 | 101 | 94.6 | 99.4 | 98.7 | 98.4 | 109 | 95.8 | 108 | 96.8 | 110 | 111 | > 10 | > 10 | > 10 | > 10 | > 10 | 0 | 0 | 0 | 0 | 0
CCCc1cc(C(N)=S)ccn1 [protionamide] | 104 | 107 | 98.6 | 96 | 96.4 | 108 | 105 | 95.9 | 103 | 95.3 | 102 | 98.6 | 93.3 | 101 | 91.6 | 94.4 | 80.4 | 93.8 | 73.7 | 68.3 | 96.2 | 100 | 88.9 | 107 | 92.4 | > 10 | > 10 | > 10 |  | > 10 | 0 | 0 | 0 | 5.7 | 0
C[C@H](NC(=O)c1sccc1OCc1ccc(Cl)cc1)c1ccccc1 | 92.3 | 103 | 98.7 | 99.9 | 88.6 | 104 | 108 | 105 | 103 | 75.8 | 113 | 107 | 108 | 100 | 96.8 | 97.9 | 103 | 104 | 97 | 67.7 | 102 | 96 | 99.6 | 107 | 98.1 | > 10 | > 10 | > 10 |  | > 10 | 0 | 0.7 | 0 | 1.9 | 0
CC(=O)Nc1ccc(NC(=S)NC(=O)c2ccc(C(C)(C)C)cc2)cc1 [tenovin-1] | 95.6 | 96.8 | 96.2 | 103 | 98.3 | 113 | 89.6 | 104 | 56.8 | 42.4 | 99.9 | 98.8 | 105 | 67.8 | 61.7 | 94.7 | 91.4 | 106 | 100 | 88.7 | 108 | 95.1 | 95.8 | 90.9 | 77.2 | > 10 | 0.65 |  | > 10 | > 10 | 0 | 8.2 | 5.6 | 0 | 1.3
CCc1cncnc1N1CCN(Cc2nc3cc(C(F)(F)F)ccc3[nH]2)CC1 | 96.6 | 101 | 98.5 | 97.7 | 79.9 | 97.6 | 103 | 103 | 92.4 | 34.8 | 99.5 | 104 | 101 | 101 | 89.9 | 93.2 | 109 | 99 | 98.5 | 61.8 | 80.8 | 101 | 84.2 | 89.9 | 88.2 | > 10 | 2.21 | > 10 |  | > 10 | 0.9 | 4.8 | 0 | 2.1 | 1.1
OC(CCN1CCCCC1)(c1ccccc1)C1CCCCC1 (configuration not stated) [trihexyphenidyl] | 96.9 | 103 | 101 | 98.1 | 97.8 | 101 | 87.7 | 100 | 93.2 | 83.4 | 103 | 106 | 112 | 98.9 | 83.1 | 101 | 100 | 95.5 | 94.6 | 74.7 | 102 | 98.9 | 96.7 | 90.7 | 85.6 | > 10 | > 10 | > 10 |  | > 10 | 0 | 0.3 | 0.5 | 1.7 | 0.5
O=C(O)c1ccc2cc(-c3ccc(O)c(C45CC6CC(CC(C6)C4)C5)c3)ccc2c1 [CD-437] | 101 | 100 | 98.7 | 84.7 | 9.8 | 108 | 95.4 | 105 | 48.8 | 29.3 | 107 | 99.1 | 104 | 87.6 | 54.7 | 99.4 | 92.8 | 89.4 | 56.2 | 36.8 | 92.7 | 101 | 93.3 | 85.7 | 24.4 | 1.88 | 0.685 |  | 0.436 | 1.79 | 7.5 | 9.9 | 4.2 | 9.5 | 6.5
C[C@@]1(CO)[C@H](O)CC[C@@]2(C)[C@H]1CC[C@H]1C[C@@H]3C[C@@]12CC[C@]3(O)CO [aphidicolin] | 106 | 104 | 101 | 98.7 | 79.4 | 100 | 100 | 91.3 | 50.5 | 22.5 | 106 | 109 | 100 | 90.7 | 35.8 | 100 | 100 | 80 | 79.2 | 72 | 111 | 100 | 110 | 87.3 | 77.7 | > 10 | 0.608 | 2.02 |  | > 10 | 0.8 | 10.6 | 5.1 | 6.8 | 2.1
CCOC(=O)c1cncn1[C@H](C)c1ccccc1 [etomidate] | 91.8 | 99.2 | 94.4 | 97.2 | 102 | 95 | 86.3 | 97.3 | 100 | 91.7 | 102 | 96.4 | 104 | 89.1 | 106 |  |  |  |  |  | 94.2 | 111 | 97.1 | 102 | 100 | > 10 | > 10 | > 10 |  | > 10 | 0 | 0 | 0 |  | 0
OC(CCCN1CCCCC1)(c1ccccc1)c1ccccc1 [diphenidol] | 104 | 98.9 | 103 | 99.5 | 100 | 96.1 | 101 | 102 | 109 | 105 |  |  |  |  |  | 90.3 | 93.3 | 90.5 | 102 | 87.8 | 120 | 104 | 97.8 | 106 | 98.6 | > 10 | > 10 |  | > 10 | > 10 | 0 | 0 |  | 0 | 0
COc1c(N2CCNC(C)C2)c(F)cc2c(=O)c(C(=O)O)cn(C3CC3)c12 (configuration not stated) [gatifloxacin] | 102 | 98.5 | 94.7 | 95.2 | 93 | 99.1 | 101 | 95.9 | 98.7 | 100 |  |  |  |  |  | 95.7 | 99.9 | 97.6 | 100 | 96.8 | 101 | 114 | 103 | 103 | 89.4 | > 10 | > 10 |  | > 10 | > 10 | 0 | 0 |  | 0 | 0
